In assay [1] the test system is LLC tumor. The assay is described as follows: Tumor growth inhibition, LLC tumor in mice.
Experimental: Tumor cells for implantation were taken from cells either grown in tissue culture (Leydig, M21) or serially passaged as tumors in mice and prepared as tumor brei (LLC, PC-3) by methodology known in the art. Mice were injected subcutaneously in the proximal dorsal midline with 5×10^6 tumor cells and administration of test αvβ3 integrin antagonist compound was initiated the evening of the same day either prior to the chemotherapeutic agent, delayed and on the same day as the chemotherapeutic agent or delayed and following the chemotherapeutic agent. Tumor volumes were measured at intervals over the course of the experiments. Tumors were measured with a vernier caliper and volumes were determined using the formula for the volume of a cylinder: tumor volume=width^2×length×0.52. Blood was routinely drawn, for serum calcium determination and plasma drug concentration, 6 hours post-dosing on day 4 or 5 and again 12 hours post-dosing on the day of sacrifice. On the final day of the experiment, tumors were dissected free and weighed. Calcium concentrations of serum samples were determined calorimetrically using a clinical diagnostic kit. The data are expressed as the mean +/− SEM. Student's and Mann-Whitney tests were used to assess differences between means or medians using the InStat software package.
Assay [2] deals with Rice Leydig tumor cells. The assay is described as follows: Tumor growth inhibition, Rice Leydig tumor in SCID mice.
Experimental: Tumor cells for implantation were taken from cells either grown in tissue culture (Leydig, M21) or serially passaged as tumors in mice and prepared as tumor brei (LLC, PC-3) by methodology known in the art. Mice were injected subcutaneously in the proximal dorsal midline with 5×10^6 tumor cells and administration of test αvβ3 integrin antagonist compound was initiated the evening of the same day either prior to the chemotherapeutic agent, delayed and on the same day as the chemotherapeutic agent or delayed and following the chemotherapeutic agent. Tumor volumes were measured at intervals over the course of the experiments. Tumors were measured with a vernier caliper and volumes were determined using the formula for the volume of a cylinder: tumor volume=width^2×length×0.52. […] On the final day of the experiment, tumors were dissected free and weighed. […] The data are expressed as the mean +/− SEM. Student's and Mann-Whitney tests were used to assess differences between means or medians using the InStat software package.
Assay [3] has as its system M21 human melanoma. Briefly: Tumor growth inhibition, M21 human melanoma in mice. The settings on record: cyclophosphamide 150 mg/kg ip on days 14, 16 and 18. The assay is classed as in vivo, SCID mice. The protocol:
In this model, cyclophosphamide was administered (150 mg/kg;ip) on days 14, 16 and 18, and XII (10 mg/kg, BID, PO) was administered continuously after the chemotherapeutic beginning on day 21.

The mark [4] stands for this setting: cisplatin 10 mg/kg ip day 5, XII at 10 mg/kg.

Molecules are shown by their SMILES.

Take `N.N.[Cl][Pt][Cl]` [Cisplatin, cisplatin]: in assay [1] (setting [4]), the Median survival time worked out at 33 days and the “Time to develop a tumor >500 mm^3” value came out at 22.4 days. In assay [1] (cisplatin single ip dose 10 mg/kg on day 5, XII 1 and 10 mg/kg, oral, BID from day 1), the “Effect on growth of the LLC tumor” value is listed as “significantly retarded”. The Tumor growth inhibition result in assay [2] (cisplatin at maximum tolerated dose, XII 10 mg/kg PO, compared to control-treated mice) was “approximately 50%”. Besides, in assay [2] (tumor bearing SCID mice), the “Effect on survival time” value is reported as “little effect”.

`O=P1(N(CCCl)CCCl)NCCCO1` (stereo not drawn) [Cyclophosphamide, cyclophosphamide]: the “Inhibition of growth of M21 tumors” value in assay [3] is on record as “significantly inhibited”.

The record behind these values is patent US6372719B1, “ανβ3 integrin antagonists in combination with chemotherapeutic agents” (priority 1998, dated 2002).
